Measurements: ChEMBL document CHEMBL1158709, “Cytotoxic flavanones of Schizolaena hystrix from the Madagascar rainforest” (J Nat Prod, 2005)
In brackets after ≈: the same amount, converted by molar mass.

Test system: A2780
Experiment: Cytotoxicity against human A2780 cells
Assay type: functional, cell-based

Compound | IC50
CC(C)=CCC/C(C)=C/Cc1c(O)cc2c(c1O)C(=O)C[C@@H](c1ccc(O)cc1)O2 [BONANNIONE A] | 12 µg/mL (≈ 29.4 µM)
CC(C)=CCc1cc([C@@H]2CC(=O)c3c(cc(O)c(CC=C(C)C)c3O)O2)ccc1O [MACARANGAFLAVANONE B] | 16 µg/mL (≈ 39.2 µM)
CC(C)=CCC/C(C)=C/Cc1c(O)cc2c(c1O)C(=O)[C@H](O)[C@@H](c1ccc(O)cc1)O2 [BONANNIOL A] | 25 µg/mL (≈ 58.9 µM)
CC(C)=CCC/C(C)=C/Cc1cc([C@@H]2CC(=O)c3c(cc(O)c(CC=C(C)C)c3O)O2)cc(O)c1O [SCHIZOLAENONE B] | 11 µg/mL (≈ 22.3 µM)
COc1ccc([C@@H]2CC(=O)c3c(cc(O)c(C/C=C(\C)CCC=C(C)C)c3O)O2)cc1 | 17 µg/mL (≈ 40.2 µM)
CC(C)=CCC/C(C)=C/Cc1c(O)cc2c(c1O)C(=O)C[C@@H](c1ccc(O)c(O)c1)O2 [NYMPHAEOL A] | 5.5 µg/mL (≈ 13 µM)
CC(C)=CCC/C(C)=C/Cc1cc([C@@H]2CC(=O)c3c(cc(O)c(CC=C(C)C)c3O)O2)ccc1O [SCHIZOLAENONE A] | 10 µg/mL (≈ 21 µM)
